# Measured values published in patent publication EP3147364A1, “ANTIVIRAL AGENTS COMPRISING AN OLIGONUCLEOTIDE-LIPID CONJUGATE FORMING G-QUADRUPLEX” (priority 2015, dated 2017).
# Assays:
# [1] = Cytotoxicity (viability) assay in Huh7/Scr cells (CytoTox-Glo); format: cell-based; settings: human
# Luc-Jc1 virus = assay: HCVcc infection: Luc-Jc1 virus on Huh7/Scr cells, Firefly luciferase
# NL4.3-Ren [2] = assay: Transfection experiment: pNL4.3-Ren viruses produced in 293T cells in presence of drug, quantified and tested for infectivity on SupT1 cells; format: cell-based, HIV-1; settings: drug added to transfected 293T cells for 24h; supernatants on SupT1 cells (Fig. 7a)
# NL4.3-Ren [3] = format: cell-based, HIV-1; settings: text does not say which of assays A and B (Figs. 4 and 5)
smiles,measurement,setting,value
Cc1nc(Nc2ncc(C(=O)Nc3c(C)cccc3Cl)s2)cc(N2CCN(CCO)CC2)n1 [Dasatinib],CC50 at 72 h,[1],20.3 µM
same,EC50,"Luc-Jc1 virus; Hepatitis C virus, Huh-7, 72 h",1.47 µM
same,SI,Luc-Jc1 virus; Selectivity Index from EC50 and CC50,13.81
"CC(C)CN(C[C@@H](O)[C@H](Cc1ccccc1)NC(=O)O[C@H]1CCOC1)S(=O)(=O)c1ccc(N)cc1 [APV, Amprenavir]",inhibition of infection by viruses produced in presence of drug,NL4.3-Ren [2],inhibition of infection is detected
"CCCC/C=C\C/C=C\CCCCCCCCCOCC(O)CO (centres unmarked) [3-[(10Z,13Z)-octadeca-10,13-dien-1-yloxy]propane-1,2-diol]",antiviral effect,NL4.3-Ren [3],no effect
